Laboratory results reported in patent US20230157952A1, “METHOD FOR IMPROVING THE STABILITY OF A PHARMACEUTICAL COMPOSITION COMPRISING A HIGH PENETRATION DRUG, AND THE PHARMACEUTICAL COMPOSITION OBTAINED THEREFROM” (Techfields Inc., priority 2020, published 2023).

Test: Effect of temperature (and pH) on the stability of the solution (purity)
Format: physicochemical
Conditions: 7% solution in water

CCN(CC)CCOC(=O)COc1nn(Cc2ccccc2)c2ccccc12.Cl
Purity(%) at day 0 (pH 1.0, day 0): 97.5 ± 0.3%
Purity(%) at day 21 (5° C.) (pH 1.0, day 21, 5° C.): 89.9 ± 0.3%
Purity(%) at day 21 (25° C.) (pH 1.0, day 21, 25° C.): 63.5 ± 0.3%
Purity(%) at day 21 (40° C.) (pH 1.0, day 21, 40° C.): 9.1 ± 0.3%
Purity (%) at day 21 (60° C.) (pH 1.0, day 21, 60° C.): 0%
Purity(%) at day 0 (pH 2.0, day 0): 97.7 ± 0.2%
Purity(%) at day 21 (5° C.) (pH 2.0, day 21, 5° C.): 93.0 ± 0.2%
Purity(%) at day 21 (25° C.) (pH 2.0, day 21, 25° C.): 77.8 ± 0.3%
Purity(%) at day 21 (40° C.) (pH 2.0, day 21, 40° C.): 19.6 ± 0.3%
Purity (%) at day 21 (60° C.) (pH 2.0, day 21, 60° C.): 0%
Purity(%) at day 0 (pH 3.0, day 0): 97.8 ± 0.2%
Purity(%) at day 21 (5° C.) (pH 3.0, day 21, 5° C.): 96.8 ± 0.2%
Purity(%) at day 21 (25° C.) (pH 3.0, day 21, 25° C.): 91.3 ± 0.2%
Purity(%) at day 21 (40° C.) (pH 3.0, day 21, 40° C.): 40.4 ± 0.2%
Purity (%) at day 21 (60° C.) (pH 3.0, day 21, 60° C.): 0%
Purity(%) at day 0 (pH 3.7, day 0): 97.9 ± 0.1%
Purity(%) at day 21 (5° C.) (pH 3.7, day 21, 5° C.): 97.5 ± 0.1%
Purity(%) at day 21 (25° C.) (pH 3.7, day 21, 25° C.): 95.6 ± 0.2%
Purity(%) at day 21 (40° C.) (pH 3.7, day 21, 40° C.): 55.6 ± 0.2%
Purity (%) at day 21 (60° C.) (pH 3.7, day 21, 60° C.): 8.5 ± 0.2%
Purity(%) at day 0 (pH 4.0, day 0): 98.1 ± 0.1%
Purity(%) at day 21 (5° C.) (pH 4.0, day 21, 5° C.): 97.6 ± 0.1%
Purity(%) at day 21 (25° C.) (pH 4.0, day 21, 25° C.): 95.7 ± 0.1%
Purity(%) at day 21 (40° C.) (pH 4.0, day 21, 40° C.): 57.2 ± 0.2%
Purity (%) at day 21 (60° C.) (pH 4.0, day 21, 60° C.): 23.2 ± 0.2%
Purity(%) at day 0 (pH 4.3, day 0): 98.1 ± 0.1%
Purity(%) at day 21 (5° C.) (pH 4.3, day 21, 5° C.): 97.7 ± 0.2%
Purity(%) at day 21 (25° C.) (pH 4.3, day 21, 25° C.): 95.5 ± 0.1%
Purity(%) at day 21 (40° C.) (pH 4.3, day 21, 40° C.): 58.8 ± 0.3%
Purity (%) at day 21 (60° C.) (pH 4.3, day 21, 60° C.): 25.8 ± 0.2%
Purity(%) at day 0 (pH 4.6, day 0): 97.9 ± 0.1%
Purity(%) at day 21 (5° C.) (pH 4.6, day 21, 5° C.): 97.6 ± 0.1%
Purity(%) at day 21 (25° C.) (pH 4.6, day 21, 25° C.): 95.1 ± 0.1%
Purity(%) at day 21 (40° C.) (pH 4.6, day 21, 40° C.): 54.7 ± 0.2%
Purity (%) at day 21 (60° C.) (pH 4.6, day 21, 60° C.): 16.5 ± 0.2%
Purity(%) at day 0 (pH 5.0, day 0): 97.8 ± 0.2%
Purity(%) at day 21 (5° C.) (pH 5.0, day 21, 5° C.): 95.9 ± 0.2%
Purity(%) at day 21 (25° C.) (pH 5.0, day 21, 25° C.): 91.8 ± 0.2%
Purity(%) at day 21 (40° C.) (pH 5.0, day 21, 40° C.): 36.1 ± 0.2%
Purity (%) at day 21 (60° C.) (pH 5.0, day 21, 60° C.): 4.2 ± 0.2%
Purity(%) at day 0 (pH 6.0, day 0): 97.6 ± 0.3%
Purity(%) at day 21 (5° C.) (pH 6.0, day 21, 5° C.): 93.7 ± 0.2%
Purity(%) at day 21 (25° C.) (pH 6.0, day 21, 25° C.): 78.9 ± 0.2%
Purity(%) at day 21 (40° C.) (pH 6.0, day 21, 40° C.): 18.5 ± 0.2%
Purity (%) at day 21 (60° C.) (pH 6.0, day 21, 60° C.): 0%
Purity(%) at day 0 (pH 7.0, day 0): 97.5 ± 0.3%
Purity(%) at day 21 (5° C.) (pH 7.0, day 21, 5° C.): 89.3 ± 0.2%
Purity(%) at day 21 (25° C.) (pH 7.0, day 21, 25° C.): 59.7 ± 0.3%
Purity(%) at day 21 (40° C.) (pH 7.0, day 21, 40° C.): 7.1 ± 0.3%
Purity (%) at day 21 (60° C.) (pH 7.0, day 21, 60° C.): 0%
Purity(%) at day 0 (pH 8.0, day 0): 97.4 ± 0.4%
Purity(%) at day 21 (5° C.) (pH 8.0, day 21, 5° C.): 77.5 ± 0.3%
Purity(%) at day 21 (25° C.) (pH 8.0, day 21, 25° C.): 39.8 ± 0.3%
Purity(%) at day 21 (40° C.) (pH 8.0, day 21, 40° C.): 0%
Purity (%) at day 21 (60° C.) (pH 8.0, day 21, 60° C.): 0%

CCN(CC)CCOC(=O)COC(=O)Cc1c(C)n(C(=O)c2ccc(Cl)cc2)c2ccc(OC)cc12.Cl
Purity(%) at day 0 (pH 1.0, day 0): 98.1 ± 0.3%
Purity(%) at day 21 (5° C.) (pH 1.0, day 21, 5° C.): 91.9 ± 0.3%
Purity(%) at day 21 (25° C.) (pH 1.0, day 21, 25° C.): 67.3 ± 0.3%
Purity(%) at day 21 (40° C.) (pH 1.0, day 21, 40° C.): 15.6 ± 0.3%
Purity (%) at day 21 (60° C.) (pH 1.0, day 21, 60° C.): 0%
Purity(%) at day 0 (pH 2.0, day 0): 98.3 ± 0.3%
Purity(%) at day 21 (5° C.) (pH 2.0, day 21, 5° C.): 95.7 ± 0.2%
Purity(%) at day 21 (25° C.) (pH 2.0, day 21, 25° C.): 82.2 ± 0.2%
Purity(%) at day 21 (40° C.) (pH 2.0, day 21, 40° C.): 26.7 ± 0.3%
Purity (%) at day 21 (60° C.) (pH 2.0, day 21, 60° C.): 0%
Purity(%) at day 0 (pH 3.0, day 0): 98.5 ± 0.2%
Purity(%) at day 21 (5° C.) (pH 3.0, day 21, 5° C.): 98.0 ± 0.2%
Purity(%) at day 21 (25° C.) (pH 3.0, day 21, 25° C.): 93.0 ± 0.2%
Purity(%) at day 21 (40° C.) (pH 3.0, day 21, 40° C.): 47.7 ± 0.3%
Purity (%) at day 21 (60° C.) (pH 3.0, day 21, 60° C.): 0%
Purity(%) at day 0 (pH 3.7, day 0): 98.7 ± 0.1%
Purity(%) at day 21 (5° C.) (pH 3.7, day 21, 5° C.): 98.2 ± 0.1%
Purity(%) at day 21 (25° C.) (pH 3.7, day 21, 25° C.): 97.1 ± 0.1%
Purity(%) at day 21 (40° C.) (pH 3.7, day 21, 40° C.): 57.6 ± 0.2%
Purity (%) at day 21 (60° C.) (pH 3.7, day 21, 60° C.): 13.9 ± 0.3%
Purity(%) at day 0 (pH 4.0, day 0): 98.7 ± 0.1%
Purity(%) at day 21 (5° C.) (pH 4.0, day 21, 5° C.): 98.4 ± 0.1%
Purity(%) at day 21 (25° C.) (pH 4.0, day 21, 25° C.): 97.4 ± 0.2%
Purity(%) at day 21 (40° C.) (pH 4.0, day 21, 40° C.): 68.7 ± 0.3%
Purity (%) at day 21 (60° C.) (pH 4.0, day 21, 60° C.): 19.2 ± 0.3%
Purity(%) at day 0 (pH 4.3, day 0): 98.8 ± 0.2%
Purity(%) at day 21 (5° C.) (pH 4.3, day 21, 5° C.): 98.5 ± 0.1%
Purity(%) at day 21 (25° C.) (pH 4.3, day 21, 25° C.): 97.5 ± 0.1%
Purity(%) at day 21 (40° C.) (pH 4.3, day 21, 40° C.): 68.6 ± 0.3%
Purity (%) at day 21 (60° C.) (pH 4.3, day 21, 60° C.): 17.9 ± 0.2%
Purity(%) at day 0 (pH 4.6, day 0): 98.8 ± 0.2%
Purity(%) at day 21 (5° C.) (pH 4.6, day 21, 5° C.): 98.4 ± 0.2%
Purity(%) at day 21 (25° C.) (pH 4.6, day 21, 25° C.): 96.5 ± 0.2%
Purity(%) at day 21 (40° C.) (pH 4.6, day 21, 40° C.): 53.7 ± 0.2%
Purity (%) at day 21 (60° C.) (pH 4.6, day 21, 60° C.): 14.8 ± 0.3%
Purity(%) at day 0 (pH 5.0, day 0): 98.6 ± 0.2%
Purity(%) at day 21 (5° C.) (pH 5.0, day 21, 5° C.): 97.1 ± 0.2%
Purity(%) at day 21 (25° C.) (pH 5.0, day 21, 25° C.): 93.8 ± 0.2%
Purity(%) at day 21 (40° C.) (pH 5.0, day 21, 40° C.): 39.8 ± 0.3%
Purity (%) at day 21 (60° C.) (pH 5.0, day 21, 60° C.): 3.2 ± 0.2%
Purity(%) at day 0 (pH 6.0, day 0): 98.4 ± 0.2%
Purity(%) at day 21 (5° C.) (pH 6.0, day 21, 5° C.): 95.8 ± 0.2%
Purity(%) at day 21 (25° C.) (pH 6.0, day 21, 25° C.): 86.9 ± 0.2%
Purity(%) at day 21 (40° C.) (pH 6.0, day 21, 40° C.): 28.8 ± 0.2%
Purity (%) at day 21 (60° C.) (pH 6.0, day 21, 60° C.): 0%
Purity(%) at day 0 (pH 7.0, day 0): 98.1 ± 0.2%
Purity(%) at day 21 (5° C.) (pH 7.0, day 21, 5° C.): 90.2 ± 0.3%
Purity(%) at day 21 (25° C.) (pH 7.0, day 21, 25° C.): 59.7 ± 0.3%
Purity(%) at day 21 (40° C.) (pH 7.0, day 21, 40° C.): 11.2 ± 0.4%
Purity (%) at day 21 (60° C.) (pH 7.0, day 21, 60° C.): 0%
Purity(%) at day 0 (pH 8.0, day 0): 97.7 ± 0.3%
Purity(%) at day 21 (5° C.) (pH 8.0, day 21, 5° C.): 78.5 ± 0.2%
Purity(%) at day 21 (25° C.) (pH 8.0, day 21, 25° C.): 47.9 ± 0.3%
Purity(%) at day 21 (40° C.) (pH 8.0, day 21, 40° C.): 0%
Purity (%) at day 21 (60° C.) (pH 8.0, day 21, 60° C.): 0%
